Results: patent US9656972B2, “Compounds for treatment of cystic fibrosis” (THE CALIFORNIA INSTITUTE FOR BIOMEDICAL RESEARCH, priority 2013, dated 2017)

Experiments:
guinea-pigs = test: Tracheal potential difference (TPD) after intra-tracheal dosing in guinea pigs; type: in vivo; conditions: guinea pig; for TPD (mV): i.t. instillation, mean; for TPD Assessment Time after i.t. Treatment 1 hr / TPD Assessment Time after i.t. Treatment 3 hr / TPD Assessment Time after i.t. Treatment 5 hr / TPD Assessment Time after i.t. Treatment 8 hr / TPD Assessment Time after i.t. Treatment 24 hr / TPD Assessment Time after i.t. Treatment 48 hr: Table 3, mean ± sem
Text: Cystic fibrosis (CF) and chronic obstructive pulmonary disease (COPD) is dysregulated clearance of mucus across the cell layers lining the respiratory tract. A therapeutic strategy to treat these diseases is to inhibit these channels or the regulators of these channels in an effort to correct this mucus clearance defect. Potential difference is used in the clinic as a diagnostic tool for cystic fibrosis sufferers and for clinical trials. Small molecule inhibitors of these targets will enhance mucociliary clearance and thereby improve lung function and reduce the rate of exacerbations in cystic fibrosis (CF) and chronic obstructive pulmonary disease (COPD) patients. The guinea pig, unlike other rodents, has a lung structure which is roughly analogous to the human lung. For this reason, in terms of rodent models of lung function the guinea pig is often the model of choice for respiratory disease models including asthma, COPD and respiratory distress syndrome.
Preparation of Agar Bridges
Agar (3.5%) was dissolved in Hank's buffered salt solution (pH 7.4, 280-305 mosmkg_1H2O) by heating in a water bath at 100° C. A 30-40 cm length of polyethylene tubing, of which one end was bevelled at an angle of 20-60°, was then filled with the agar ensuring no air bubbles were formed or trapped within the tubing. The beveled tip of the tube was then dipped in the liquid agar, creating a small bulge. The exploring and reference electrodes constructed with the Hank's buffered salt solution/agar bridge were linked to a calomel half cell by immersion in 1M KCl.
Guinea pigs received a single dose of either the test article or vehicle instilled directly into the trachea. The animal was placed under short-term anesthesia using an inhaled isoflurane/nitrous oxide (N2O) 1:1 mixture (level 5/optimal for ˜10 sec.; 3.5/2 for 5 min.). At this suitable depth of anesthesia (loss of pedal and blink reflex), a single dose of either the test article, vehicle and/or positive control was instilled directly into the trachea. This was accomplished by very delicately inserted the 3″, 18 guage feeding tube into the trachea to preserve the potential difference of the mucosa. The guinea pig was allowed to recovered immediately; at times with the aid of supplemental O2. […] If there was apparent toxicity, animals were euthanized immediately and all observation was appropriately documented. As the animal was anesthetized during this treatment, no local anesthesia was necessary and there was no need to use a laryngoscope.
30 minutes prior to the 3 hr post dosing surgery each guinea pig received a dose of 0.4 mL of Midazolam-5 mg/mL, intra-peritoneal (i.p.) injection followed 25 minutes later with a 1 mL/kg of 50 mg/kg ketamine/6.5 mg/kg xylazine i.p. injection (previously prepared with 100 mg/mL ketamine and 25 mg/mL xylazine in Sterile Water for Injection USP mixed at 2:1:1 respectively). […] The trachea was exposed and visualized near the sternum using minimal blunt dissection. A lateral incision was made between the cartilaginous rings of the trachea close to the sternum. The beveled (distal) end of an exploring electrode was gently inserted into the lumen of the trachea moving in the direction towards the larynx, ensuring that spontaneous respiration was still possible. The beveled end of the reference electrode was positioned near the trachea in electrical contact with the flesh of the throat. A small volume of HBSS was applied into this region to ensure a good electrical contact. Potential difference was measured using a high impedance voltmeter (IsoMil) (5-0.5 cm increment measurement for verification—but only the initial placement value is recorded). The animal was terminated immediately after this procedure while still under anesthesia with an intra-cardiac dose of 0.5 mL of Euthasol.

[1] = Systemic (plasma) exposure after intratracheal dosing; type: in vivo, guinea pig; conditions: 1 mg/kg single dose, compared with monomeric GS-9411
Experimental: A comparison of systemic (plasma exposure) of monomeric compound GS-9411 and dimeric compound 28 after intratracheal dosing was performed (at 1 mg/kg single dose).

[2] = Table 1, dose 0.2 ug/kg, 3 hr after dosing
[3] = Table 1, dose 30 ug/kg, 3 hr after dosing
[4] = Table 1, dose 300 ug/kg, 3 hr after dosing
[5] = Table 2 controls, dose 300 ug/kg, vehicle −12.4

SMILES: N=C(NCCCCc1ccc(OCCOCCNC(=O)CCC(=O)NCCOCCOc2ccc(CCCCNC(=N)NC(=O)c3nc(Cl)c(N)nc3N)cc2)cc1)NC(=O)c1nc(Cl)c(N)nc1N [Compound 67]
- TPD (mV) (guinea-pigs; [2]): −7.0 mV

SMILES: N=C(NCCCCc1ccc(OCCOCCOCCNC(=O)C(=O)NCCOCCOCCOc2ccc(CCCCNC(=N)NC(=O)c3nc(Cl)c(N)nc3N)cc2)cc1)NC(=O)c1nc(Cl)c(N)nc1N [Compound 69]
- TPD (mV) (guinea-pigs; [3]): −6.3 mV

SMILES: N=C(NCCCCc1ccc(OCCOCCOC(=O)NCCCCNC(=O)OCCOCCOc2ccc(CCCCNC(=N)NC(=O)c3nc(Cl)c(N)nc3N)cc2)cc1)NC(=O)c1nc(Cl)c(N)nc1N [Compound 28]
- lower AUC (total area under the curve) versus GS-9411 [1]: 5 fold
- lower Cmax (maximal concentration) versus GS-9411 [1]: 20 ×
- TPD (mV) (guinea-pigs; [4]): −4.00 mV
- TPD Assessment Time after i.t. Treatment 1 hr (guinea-pigs; 30 μg/kg): −6.7 ± 0.65 (3)
- TPD Assessment Time after i.t. Treatment 3 hr (guinea-pigs; 30 μg/kg): −6.4 ± 0.60 (3)
- TPD Assessment Time after i.t. Treatment 5 hr (guinea-pigs; 30 μg/kg): −5.4 ± 1.03 (3)
- TPD Assessment Time after i.t. Treatment 8 hr (guinea-pigs; 30 μg/kg): −5.1 ± 0.54 (3)
- TPD Assessment Time after i.t. Treatment 24 hr (guinea-pigs; 30 μg/kg): −5.9 ± 0.18 (3)
- TPD Assessment Time after i.t. Treatment 48 hr (guinea-pigs; 30 μg/kg): −9.6 ± 1.43 (3)

SMILES: N=C(N)Nc1ccc(C(=O)Oc2ccc3cc(C(=N)NCCOCCOCCNC(=N)c4ccc5cc(OC(=O)c6ccc(NC(=N)N)cc6)ccc5c4)ccc3c2)cc1 [Compound 50]
- TPD (mV) (guinea-pigs; [4]): −6.20 mV

SMILES: N=C(NCCCCc1ccc(OCCOCCNC(=O)NCCCCNC(=O)NCCOCCOc2ccc(CCCCNC(=N)NC(=O)c3nc(Cl)c(N)nc3N)cc2)cc1)NC(=O)c1nc(Cl)c(N)nc1N [Compound 37]
- TPD (mV) (guinea-pigs; [3]): −7.50 mV
- TPD (mV) (guinea-pigs; [4]): −5.50 mV

SMILES: N=C(N)Nc1ccc(C(=O)Oc2ccc(CC(=O)OCC(=O)NCCOCCOCCNC(=O)COC(=O)Cc3ccc(OC(=O)c4ccc(NC(=N)N)cc4)cc3)cc2)cc1 [Compound 53]
- TPD (mV) (guinea-pigs; [3]): −9.3 mV

SMILES: N=C(NCCCCc1ccc(OCCOCCNC(=O)C(O)C(O)C(=O)NCCOCCOc2ccc(CCCCNC(=N)NC(=O)c3nc(Cl)c(N)nc3N)cc2)cc1)NC(=O)c1nc(Cl)c(N)nc1N (stereo not drawn) [Compound 16]
- TPD (mV) (guinea-pigs; [3]): −6.30 mV

SMILES: N=C(NCCCCc1ccc(OCCOCCOCCNC(=O)CCC(=O)NCCOCCOCCOc2ccc(CCCCNC(=N)NC(=O)c3nc(Cl)c(N)nc3N)cc2)cc1)NC(=O)c1nc(Cl)c(N)nc1N [Compound 68]
- TPD (mV) (guinea-pigs; [2]): −6.9 mV

SMILES: CN(C)C(=O)COC(=O)Cc1ccc(OC(=O)c2ccc(NC(=N)N)cc2)cc1 [Camostat]
- TPD (mV) (guinea-pigs; [5]): −4.9 mV

SMILES: NC(=NCc1ccccc1)NC(=O)c1nc(Cl)c(N)nc1N [Benzamil]
- TPD (mV) (guinea-pigs; [5]): −6.2 mV
- TPD Assessment Time after i.t. Treatment 1 hr (guinea-pigs; 300 μg/kg): −8.9 (1)
- TPD Assessment Time after i.t. Treatment 3 hr (guinea-pigs; 300 μg/kg): −7.2 (1)
- TPD Assessment Time after i.t. Treatment 5 hr (guinea-pigs; 300 μg/kg): −8.5 (1)
- TPD Assessment Time after i.t. Treatment 8 hr (guinea-pigs; 300 μg/kg): −6.5 (1)
- TPD Assessment Time after i.t. Treatment 24 hr (guinea-pigs; 300 μg/kg): −4.8 (1)
- TPD Assessment Time after i.t. Treatment 48 hr (guinea-pigs; 300 μg/kg): −10.0 ± 0.07 (2)

SMILES: N=C(NCCCCc1ccc(OCCOCCOCCOCCOCCO)cc1)NC(=O)c1nc(Cl)c(N)nc1N [Compound 66]
- TPD (mV) (guinea-pigs; [3]): −7.80 mV

SMILES: COC(=O)C(CCCC(NC(=O)OCCOCCOc1ccc(CCCCNC(=N)NC(=O)c2nc(Cl)c(N)nc2N)cc1)C(=O)OC)NC(=O)OCCOCCOc1ccc(CCCCNC(=N)NC(=O)c2nc(Cl)c(N)nc2N)cc1 (stereo not drawn) [Compound 46]
- TPD (mV) (guinea-pigs; [3]): −7.30 mV
